Assay results published in patent US10793542B2, “Hetroarylamine compounds for modulating the hedgehog pathway and preparing method and uses thereof” (DEVELOPMENT CENTER FOR BIOTECHNOLOGY, priority 2016, dated 2020).
pIC50: −log10 of the molar value.

How the values were obtained:
Format in all cases: cell-based
[1] = tested on: hedgehog pathway (pGL3-7xGli-Luciferase reporter in C3H10T1/2 cells); test: Transient transfection of C3H10T1/2 and Gli-Luc reporter assay with SAG stimulation; settings: Mus musculus, C3H 10T1/2, SAG 20 nM, 48 hr, read-out: Inhibition of Gli-Luc expression [IC50
Procedure: A cell-based screen for inhibitors of the hedgehog pathway was performed using a transient transfection system in C3H10T1/2 cells with pGL3-7xGli-Luciferase reporter plasmids C3H10T1/2 cells (ATCC, cat.#CCL-226) were seeded into 6-well plates at 8×10^4 cells/well in a BME medium containing 10% heat-inactivated FBS. Cells were transfected the next morning with 500 ng/well pGL3-7xGli-Luciferase reporter plasmids and 100 ng/well pRL-TK Renilla luciferase reporter plasmids (Promega)using GeneJuice transfection reagent (Novagene). After 24 h, transfected cells were collected by trypsin treatment and re-plated in 96-well plates in an RPMI medium containing 0.5% FBS with a density of 1.5×10^4 cells/well. Compounds were dissolved in DMSO with serial dilutions and were then added to the assay plate. SAG (Hh-Ag 1.3) (Santa Cruz) was added to the assay plated for a final concentration 20 nM. The assay plates were incubated at 37° C. for 48 hr.
(§1) Firefly luciferase and Renilla luciferase activity was determined using the Dual-Glo Luciferase reporter assay system (Promega) with a Victor3 plate reader (PerkinElmer Life Sciences). Firefly luciferase readings were normalized to Renilla luciferase to correct for transfection efficiency. Luminance reading for the C3H10T1/2-Gli-Luc assay was normalized based on DMSO control with SAG stimulation (100% pathway activity) and without SAG stimulation (0% pathway activity). IC50 values, defined as the inflection point of the logistic curve, were determined by nonlinear regression using the Prism 5 software (GraphPad).

Smo wild type = target: T1, Smo wild type (Homo sapiens, UniProt Q99835); test: Reporter assay of C3H10T1/2-Gli-Luc cells transfected with wild-type Smo, without SAG; settings: C3H10T1/2 cells transfected with pLPCX-SMO, no SAG, 48 hr; read-out: Inhibition of C3H10T1/2-Gli-Luc-Smo-WT [IC50
T1 construct: expressed in transfected cells; host or cells: C3H10T1/2 cells (ATCC CCL-226), transient transfection with pLPCX-SMO
T1 sequence (Q99835 28-787): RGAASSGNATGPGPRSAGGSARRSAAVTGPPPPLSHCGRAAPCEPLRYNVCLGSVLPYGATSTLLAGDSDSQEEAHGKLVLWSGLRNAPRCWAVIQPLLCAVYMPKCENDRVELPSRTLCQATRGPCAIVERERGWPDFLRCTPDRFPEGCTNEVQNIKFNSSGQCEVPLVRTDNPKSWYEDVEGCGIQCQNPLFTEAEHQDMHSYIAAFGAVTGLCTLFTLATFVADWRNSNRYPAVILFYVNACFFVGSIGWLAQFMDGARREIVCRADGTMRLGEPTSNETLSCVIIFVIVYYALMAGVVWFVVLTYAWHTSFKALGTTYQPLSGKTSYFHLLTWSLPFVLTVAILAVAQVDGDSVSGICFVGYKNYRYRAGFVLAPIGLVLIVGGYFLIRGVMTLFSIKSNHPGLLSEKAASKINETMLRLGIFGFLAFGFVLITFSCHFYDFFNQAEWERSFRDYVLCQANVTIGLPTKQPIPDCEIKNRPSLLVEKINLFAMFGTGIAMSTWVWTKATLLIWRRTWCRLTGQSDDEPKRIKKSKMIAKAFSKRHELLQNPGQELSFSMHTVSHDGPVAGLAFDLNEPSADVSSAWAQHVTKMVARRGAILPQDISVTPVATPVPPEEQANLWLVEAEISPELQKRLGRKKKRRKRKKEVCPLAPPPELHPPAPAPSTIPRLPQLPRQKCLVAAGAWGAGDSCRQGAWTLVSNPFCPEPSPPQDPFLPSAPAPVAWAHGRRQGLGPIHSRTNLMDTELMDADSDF
Procedure: (§2) A transient transfection system with a Smo wild type or a Smo D473H mutant was also used for compound screening. For the SMO inhibition experiments, cells were transfected with an additional 500 ng/well of wild-type or D473H-mutant type SMO construct (pLPCX-SMO or pLPCX-SMO-D473H). After 24 h, transfected cells were collected by trypsin treatment and re-plated in 96-well plates in an RPMI medium containing 0.5% FBS with a density of 1.5×10^4 cells/well. Compounds were dissolved in DMSO with serial dilutions and were then added to the assay plate. The assay plates were incubated at 37° C. for 48 hr.
as §1
(§3) The reporter assay of C3H10T1/2-Gli-Luc cells transfected with a wild-type, D473H mutant Smo mutant was carried out with the same protocol but without SAG stimulation. Luminance reading for the SMO inhibition experiments assay was normalized based on DMSO control (100% of the pathway activity) and a known Smo antagonist (ALLO-2 at 10 μM, 0% of the pathway activity).

Smo D473H mutant = target: T2, Smo D473H mutant (Homo sapiens, UniProt Q99835, D473H); test: Reporter assay of C3H10T1/2-Gli-Luc cells transfected with Smo D473H mutant, without SAG; settings: C3H10T1/2 cells transfected with pLPCX-SMO-D473H, no SAG, 48 hr; read-out: Inhibition of C3H10T1/2-Gli-Luc-Smo-D473H [IC50
T2 construct: expressed in transfected cells; host or cells: C3H10T1/2 cells (ATCC CCL-226), transient transfection with pLPCX-SMO-D473H
T2 sequence (Q99835 28-787 D473H): as the sequence (Q99835 28-787) above, with D446H counted along it
Procedure: as §2, §1, §3

pIC50 [1]	pIC50 (Smo wild type)	pIC50 (Smo D473H mutant)	Compound
> 7.00	> 7.00	6.00 to 7.00	CSc1cnc(Nc2ccc(C(=O)Nc3cc(CN4CCOCC4)ccc3F)cc2F)nc1-c1ccc(F)cc1 [Compound 57, 3-Fluoro-N-(2-fluoro-5-morpholin-4-ylmethyl-phenyl)-4-[4-(4-fluoro-phenyl)-5-methylsulfanyl-pyrimidin-2-ylamino]-benzamide]
> 7.00	> 7.00	6.00 to 7.00	CCN(CC)Cc1cccc(NC(=O)c2ccc(Nc3ncc(SC)c(-c4ccc(OC(F)(F)F)cc4)n3)c(F)c2)c1 [Compound 56, N-(3-Diethylaminomethyl-phenyl)-3-fluoro-4-[5-methylsulfanyl-4-(4-trifluoromethoxy-phenyl)-pyrimidin-2-ylamino]-benzamide]
> 7.00	> 7.00	6.00 to 7.00	CCOc1cnc(Nc2ccc(C(=O)Nc3cc(CN4CCOCC4)ccc3C)cc2)nc1-c1ccc(F)cc1 [Compound 75, 4-[5-Ethoxy-4-(4-fluoro-phenyl)-pyrimidin-2-ylamino]-N-(2-methyl-5-morpholin-4-ylmethyl-phenyl)-benzamide]
> 7.00	> 7.00	6.00 to 7.00	COc1cccc(OC)c1NC(=O)c1ccc(Nc2ncc(SC)c(-c3ccc(OC(F)(F)F)cc3)n2)cc1 [Compound 22, N-(2,6-Dimethoxy-phenyl)-4-[5-methylsulfanyl-4-(4-trifluoromethoxy-phenyl)-pyrimidin-2-ylamino]-benzamide]
> 7.00	> 7.00	6.00 to 7.00	CSc1cnc(Nc2ccc(C(=O)Nc3cc(CN4CCCCC4)ccc3C)cc2F)nc1-c1ccc(F)cc1 [Compound 42, 3-Fluoro-4-[4-(4-fluoro-phenyl)-5-methylsulfanyl-pyrimidin-2-ylamino]-N-(2-methyl-5-piperidin-1-ylmethyl-phenyl)-benzamide]
> 7.00	> 7.00	> 7.00	CSc1cnc(Nc2ccc(C(=O)Nc3cc(CN4CCN(C)CC4)ccc3C)cc2)cc1-c1ccc(OC(F)(F)F)cc1 [Compound 82, N-[2-Methyl-5-(4-methyl-piperazin-1-ylmethyl)-phenyl]-4-[5-methylsulfanyl-4-(4-trifluoromethoxy-phenyl)-pyridin-2-ylamino]-benzamide]
> 7.00	> 7.00	> 7.00	CCOc1cnc(Nc2ccc(C(=O)Nc3cc(CN4CCOCC4)ccc3C)cc2)nc1-c1ccc(OC(F)(F)F)cc1 [Compound 72, 4-[5-Ethoxy-4-(4-trifluoromethoxy-phenyl)-pyrimidin-2-ylamino]-N-(2-methyl-5-morpholin-4-ylmethyl-phenyl)-benzamide]
> 7.00	> 7.00	> 7.00	CCN(CC)Cc1ccc(C)c(NC(=O)c2ccc(Nc3cc(-c4ccc(OC(F)(F)F)cc4)c(SC)cn3)cc2)c1 [Compound 87, N-(5-((diethylamino)methyl)-2-methylphenyl)-4-((5-(methylthio)-4-(4-(trifluoromethoxy)phenyl)pyridin-2-yl)amino)benzamide]
> 7.00	> 7.00	6.00 to 7.00	CSc1cnc(Nc2ccc(C(=O)Nc3cc(CN4CCOCC4)ccc3C)cc2)nc1-c1ccc(F)nc1 [Compound 67, 4-[4-(6-Fluoro-pyridin-3-yl)-5-methylsulfanyl-pyrimidin-2-ylamino]-N-(2-methyl-5-morpholin-4-ylmethyl-phenyl)-benzamide]
> 7.00	> 7.00	> 7.00	CSc1cnc(Nc2ccc(C(=O)Nc3cc(CN4CCOCC4)ccc3C)cc2F)nc1-c1cnn(C)c1 [Compound 45, 3-Fluoro-N-(2-methyl-5-morpholin-4-ylmethyl-phenyl)-4-[4-(1-methyl-1H-pyrazol-4-yl)-5-methylsulfanyl-pyrimidin-2-ylamino]-benzamide]
> 7.00	6.00 to 7.00	6.00 to 7.00	COc1cnc(Nc2ccc(C(=O)Nc3cc(CN4CCNCC4)ccc3C)cc2)nc1-c1ccc(F)cc1 [Compound 79, 4-[4-(4-Fluoro-phenyl)-5-methoxy-pyrimidin-2-ylamino]-N-(2-methyl-5-piperazin-1-ylmethyl-phenyl)-benzamide]
6.00 to 7.00	6.00 to 7.00	6.00 to 7.00	CSc1cnc(Nc2ccc(C(=O)Nc3ccccc3)cc2)nc1-c1ccc(C#N)cc1 [Compound 3, 4-[4-(4-Cyano-phenyl)-5-methylsulfanyl-pyrimidin-2-ylamino]-N-phenyl-benzamide]
> 7.00	> 7.00	6.00 to 7.00	CSc1cnc(Nc2ccc(C(=O)Nc3cc(CN4CCOCC4)ccc3C)cc2F)nc1-c1ccc(F)cc1 [Compound 41, 3-Fluoro-4-[4-(4-fluoro-phenyl)-5-methylsulfanyl-pyrimidin-2-ylamino]-N-(2-methyl-5-morpholin-4-ylmethyl-phenyl)-benzamide]
6.00 to 7.00	6.00 to 7.00	< 6.00	COc1cnc(Nc2ccc(C(=O)Nc3cc(CN4CCOCC4)ccc3C)cc2)nc1-c1ccc(C#N)cc1 [Compound 49, 4-[4-(4-Cyano-phenyl)-5-methoxy-pyrimidin-2-ylamino]-N-(2-methyl-5-morpholin-4-ylmethyl-phenyl)-benzamide]
> 7.00	> 7.00	6.00 to 7.00	COc1cnc(Nc2ccc(C(=O)Nc3cc(CN4CCN(C)CC4)ccc3C)cc2)nc1-c1ccc(C#N)cc1 [Compound 51, 4-[4-(4-Cyano-phenyl)-5-methoxy-pyrimidin-2-ylamino]-N-[2-methyl-5-(4-methyl-piperazin-1-ylmethyl)-phenyl]-benzamide]
6.00 to 7.00	6.00 to 7.00	< 6.00	CSc1cnc(Nc2ccc(C(=O)Nc3c(C)cccc3C)cc2)nc1-c1ccc(OC(F)(F)F)cc1 [Compound 1, N-(2,6-Dimethyl-phenyl)-4-[5-methylsulfanyl-4-(4-trifluoromethoxy-phenyl) -pyrimidin-2-ylamino]-benzamide]
6.00 to 7.00	> 7.00	6.00 to 7.00	CSc1cnc(Nc2ccc(C(=O)Nc3cc(CN4CCOCC4)ccc3C)cc2)nc1-c1ccc(C(F)(F)F)nc1 [Compound 68, N-(2-Methyl-5-morpholin-4-ylmethyl-phenyl)-4-[5-methylsulfanyl-4-(6-trifluoromethyl-pyridin-3-yl)-pyrimidin-2-ylamino]-benzamide]
6.00 to 7.00	6.00 to 7.00	6.00 to 7.00	CSc1cnc(Nc2ccc(C(=O)Nc3cc(CN4CCOCC4)ccc3C)cc2)nc1-c1cnn(C)c1 [Compound 39, N-(2-Methyl-5-morpholin-4-ylmethyl-phenyl)-4-[4-(1-methyl-1H-pyrazol-4-yl)-5-methylsulfanyl-pyrimidin-2-ylamino]-benzamide]
> 7.00	> 7.00	< 6.00	COc1cnc(Nc2ccc(C(=O)Nc3cc(CN4CCN(C)CC4)ccc3C)cc2)nc1-c1ccc(OC(F)(F)F)cc1 [Compound 52, 4-[5-Methoxy-4-(4-trifluoromethoxy-phenyl)-pyrimidin-2-ylamino]-N-[2-methyl-5-(4-methyl-piperazin-1-ylmethyl)-phenyl]-benzamide]
> 7.00	6.00 to 7.00	6.00 to 7.00	CSc1cnc(Nc2ccc(C(=O)Nc3cc(CN(C)C)ccc3C)cc2)nc1-c1ccc(C#N)cc1 [Compound 34, 4-[4-(4-Cyano-phenyl)-5-methylsulfanyl-pyrimidin-2-ylamino]-N-(5-dimethylaminomethyl-2-methyl-phenyl)-benzamide]
